Literature values in US20210353546A1, “DUAL RELEASE PHARMACEUTICAL COMPOSITIONS COMPRISING THE COMBINATION OF A BETA-3 ADRENORECEPTOR AGONIST AND A MUSCARINIC RECEPTOR ANTAGONIST” (Jubilant Pharma Holdings Inc., priority 2020, published 2021).
Where two headings read alike, the source gives them in different places.

Key:
[1] = not given; remark: listed apart in the source

Nc1nc(CC(=O)Nc2ccc(CCNC[C@H](O)c3ccccc3)cc2)cs1 [Mirabegron, 2-(2-aminothiazol-4-yl)-N-[4-(2-{[(2R)-2-hydroxy2-phenylethyl]amino}ethyl)phenyl] acetamide]
Solubility (in dimethyl sulfoxide): soluble | Solubility (in methanol): soluble | Solubility (in water): practically insoluble | half-life ([1]; in vivo): approximately 50 hours | bioavailability, food effect ([1]; presence of food in the Gastrointestinal Tract): affected by the presence of food
